Counter-ions that a name gives are not always drawn.
Tested on: BRCA-1 silenced HeLa cells (HeLa shBRCA1-GFP)
Assay: Proliferation assay in BRCA-1 silenced HeLa cells
Format: cell-based
Settings: Homo sapiens; BRCA1 silenced HeLa cells, 168 hours; read-out: CC50 in the BRCA1 silenced HeLa cells
Experimental: Proliferation Assay in BRCA-1 Silenced HeLa Cells
Compounds of the present invention were also tested in an anti-proliferative assay in matched pair BRCA1 wt and BRCA1-(shRNA) HeLa cells.
The assay is based on the ability of living cells to convert a redox dye (resazurin) into a fluorescent end product (resofurin). The amount of resofurin produced is directly proportional to the cell number.
HeLa shBRCA1-GFP—These are HeLa cells transduced at an MOI of 100 with a Lentivirus containing a shRNA against BRCA-1 and an expression cassette for GFP. BRCA-1 silencing is more than 80% as assessed by Taqman analysis and the cells stably express GFP.
HeLa THM-GFP—These are HeLa cells transduced at an MOI of 100 with a control vector not expressing any shRNA.
• Seed 300 cell/well in 96 wells viewplate black in 90 ul culture Medium*: • Incubate 4 hours at 37° C., 5% CO2 • Add 10 ul/well of 10× compound (5% DMSO in H2O) • Incubate for 168 hours at 37° C., 5% CO2 • Add 10 ul of Celltiter Blue solution (Promega, G8081) pre-diluted 1:1 in PBS1× • Incubate the mixture for 45′ at 37° C., 5% CO2 • Incubate 15′ at RT in the dark • Read plate at fluorimeter ex: 550 nm; em: 590 nm *Culture Medium: DMEM (GIBCO, 41966-029), 10% FCS (GIBCO, 10106-169), 0.1 mg/ml Penicillin-Streptomycin (GIBCO, 15140-114), 2 mM L-Glutamine (GIBCO, 3042190)

Structure (SMILES): Cc1c(Cc2ccc(F)c(C(=O)N3CC(=O)N4[C@@H](CCC[C@H]4C)C3)c2)n[nH]c(=O)c1C (racemic) [Example 85, 6-{4-Fluoro-3-[(cis-6-methyl-4-oxooctahydro-2H-pyrido[1,2-a]pyrazin-2-yl)carbonyl]benzyl}-4,5-dimethyl-3-oxo-2,3-dihydropyridazin-1-ium trifluoroacetate]
- CC50: < 50 nM

Structure (SMILES): Cc1c(Cc2ccc(F)c(C(=O)N3CC(=O)N([C@H]4CCOC4)[C@H](C)C3)c2)n[nH]c(=O)c1C (single isomer, unassigned) [75 (II4A)]
- CC50: 50 to 500 nM

Structure (SMILES): Cc1c(Cc2ccc(F)c(C(=O)N3CC(=O)N([C@H]4CCOC4)[C@@H](C)C3)c2)n[nH]c(=O)c1C (single isomer, unassigned) [75 (II4B)]
- CC50: < 50 nM

Structure (SMILES): Cc1c(Cc2ccc(F)c(C(=O)N3CC(=O)N4[C@@H](CCC[C@@H]4C)C3)c2)n[nH]c(=O)c1C (single isomer, unassigned) [86 (TT1)]
- CC50: < 50 nM

Structure (SMILES): Cc1c(Cc2ccc(F)c(C(=O)N3CC(=O)N4[C@H](CCC[C@H]4C)C3)c2)n[nH]c(=O)c1C (single isomer, unassigned) [86 (TT2)]
- CC50: 50 to 500 nM

Structure (SMILES): C[C@H]1CCC[C@H]2CN(C(=O)c3cc(Cc4cc(C(F)(F)F)c(=O)[nH]n4)ccc3F)CC(=O)N21 (single isomer, unassigned) [88 (VV1)]
- CC50: < 50 nM

Structure (SMILES): C[C@@H]1CCC[C@@H]2CN(C(=O)c3cc(Cc4cc(C(F)(F)F)c(=O)[nH]n4)ccc3F)CC(=O)N21 (single isomer, unassigned) [88 (VV2)]
- CC50: 50 to 500 nM

Structure (SMILES): Cc1c(Cc2ccc(F)c(C(=O)N3CCN(c4ccccc4)C(=O)C3)c2)n[nH]c(=O)c1C [Example 1, 6-{4-Fluoro-3-[(3-oxo-4-phenylpiperazin-1-yl)carbonyl]benzyl}-4,5-dimethyl-3-oxo-2,3-dihydropyridazin-1-ium trifluoroacetate]
- CC50: < 50 nM

Structure (SMILES): Cc1c(Cc2ccc(F)c(C(=O)N3CCN(C4CCCCC4)C(=O)C3)c2)n[nH]c(=O)c1C [Example 2, 6-{3-[(4-Cyclohexyl-3-oxopiperazin-1-yl)carbonyl]-4-fluorobenzyl}-4,5-dimethyl-3-oxo-2,3-dihydropyridazin-1-ium trifluoroacetate]
- CC50: < 50 nM

Structure (SMILES): Cc1c(Cc2ccc(F)c(C(=O)N3CCN(C4CCCC4)C(=O)C3)c2)n[nH]c(=O)c1C [Example 3, 6-{3-[(4-Cyclopentyl-3-oxopiperazin-1-yl)carbonyl]-4-fluorobenzyl}-4,5-dimethylpyridazin-3(2H)-one]
- CC50: < 50 nM

Structure (SMILES): CCc1cc(Cc2ccc(F)c(C(=O)N3CCN(c4ccccc4)C(=O)C3)c2)n[nH]c1=O [Example 5, 4-Ethyl-6-{4-fluoro-3-[(3-oxo-4-phenylpiperazin-1-yl)carbonyl]benzyl}pyridazin-3(2H)-one trifluoroacetate]
- CC50: 50 to 500 nM

Structure (SMILES): CCc1cc(Cc2ccc(F)c(C(=O)N3CCN(C4CCCCC4)C(=O)C3)c2)n[nH]c1=O [Example 6, 6-{3-[(4-Cyclohexyl-3-oxopiperazin-1-yl)carbonyl]-4-fluorobenzyl}-4-ethylpyridazin-3(2H)-one trifluoroacetate]
- CC50: 50 to 500 nM

Structure (SMILES): Cc1c(Cc2ccc(F)c(C(=O)N3CCN(Cc4ccc(F)cc4)C(=O)C3)c2)n[nH]c(=O)c1C [Example 8, 3-(4-Fluoro-3-{[4-(4-fluorobenzyl)-3-oxopiperazin-1-yl]carbonyl}benzyl)-4,5-dimethyl-6-oxo-1,6-dihydropyridazin-1-ium trifluoroacetate]
- CC50: < 5000 nM

Structure (SMILES): Cc1c(Cc2ccc(F)c(C(=O)N3CCN(c4cccc(Cl)c4)C(=O)C3)c2)n[nH]c(=O)c1C [Example 9, 6-(3-{[4-(3-Chlorophenyl)-3-oxopiperazin-1-yl]carbonyl}-4-fluorobenzyl)-4,5-dimethyl-3-oxo-2,3-dihydropyridazin-1-ium trifluoroacetate]
- CC50: < 50 nM

Structure (SMILES): Cc1c(Cc2ccc(F)c(C(=O)N3CCN(c4ccc(F)c(Cl)c4)C(=O)C3)c2)n[nH]c(=O)c1C [Example 10, 6-(3-{[4-(3-Chloro-4-fluorophenyl)-3-oxopiperazin-1-yl]carbonyl}-4-fluorobenzyl)-4,5-dimethyl-3-oxo-2,3-dihydropyridazin-1-ium trifluoroacetate]
- CC50: < 50 nM

Structure (SMILES): Cc1c(Cc2ccc(F)c(C(=O)N3CCN(c4ccc(F)c(F)c4)C(=O)C3)c2)n[nH]c(=O)c1C [Example 11, 6-(3-{[4-(3,4-Difluorophenyl)-3-oxopiperazin-1-yl]carbonyl}-4-fluorobenzyl)-4,5-dimethyl-3-oxo-2,3-dihydropyridazin-1-ium trifluoroacetate]
- CC50: < 50 nM

Structure (SMILES): Cc1c(Cc2ccc(F)c(C(=O)N3CCN(c4cc(F)cc(F)c4)C(=O)C3)c2)n[nH]c(=O)c1C [Example 12, 6-(3-{[4-(3,5-Difluorophenyl)-3-oxopiperazin-1-yl]carbonyl}-4-fluorobenzyl)-4,5-dimethyl-3-oxo-2,3-dihydropyridazin-1-ium trifluoroacetate]
- CC50: < 50 nM

Structure (SMILES): Cc1c(Cc2ccc(F)c(C(=O)N3CCN(c4ccc(Cl)cc4)C(=O)C3)c2)n[nH]c(=O)c1C [Example 13, 6-(3-{[4-(4-Chlorophenyl)-3-oxopiperazin-1-yl]carbonyl}-4-fluorobenzyl)-4,5-dimethyl-3-oxo-2,3-dihydropyridazin-1-ium trifluoroacetate]
- CC50: < 50 nM

Structure (SMILES): Cc1c(Cc2ccc(F)c(C(=O)N3CCN(c4ccccc4Cl)C(=O)C3)c2)n[nH]c(=O)c1C [Example 14, 6-(3-{[4-(2-Chlorophenyl)-3-oxopiperazin-1-yl]carbonyl}-4-fluorobenzyl)-4,5-dimethyl-3-oxo-2,3-dihydropyridazin-1-ium trifluoroacetate]
- CC50: 50 to 500 nM

Structure (SMILES): Cc1c(Cc2ccc(F)c(C(=O)N3CCN(c4ccccc4C(F)(F)F)C(=O)C3)c2)n[nH]c(=O)c1C [Example 15, 6-[4-Fluoro-3-({3-oxo-4-[2-(trifluoromethyl)phenyl]piperazin-1-yl}carbonyl)benzyl]-4,5-dimethyl-3-oxo-2,3-dihydropyridazin-1-ium trifluoroacetate]
- CC50: < 50 nM

Structure (SMILES): Cc1c(Cc2ccc(F)c(C(=O)N3CCN(c4ccc(F)cc4Cl)C(=O)C3)c2)n[nH]c(=O)c1C [Example 16, 6-(3-{[4-(2-Chloro-4-fluorophenyl)-3-oxopiperazin-1-yl]carbonyl}-4-fluorobenzyl)-4,5-dimethyl-3-oxo-2,3-dihydropyridazin-1-ium trifluoroacetate]
- CC50: 50 to 500 nM

Structure (SMILES): CCN1CCN(C(=O)c2cc(Cc3n[nH]c(=O)c(C)c3C)ccc2F)CC1=O [Example 17, 6-{3-[(4-Ethyl-3-oxopiperazin-1-yl)carbonyl]-4-fluorobenzyl}-4,5-dimethylpyridazin-3(2H)-one trifluoroacetate]
- CC50: 50 to 500 nM

Structure (SMILES): CCCCN1CCN(C(=O)c2cc(Cc3n[nH]c(=O)c(C)c3C)ccc2F)CC1=O [Example 18, 6-{3-[(4-Butyl-3-oxopiperazin-1-yl)carbonyl]-4-fluorobenzyl}-4,5-dimethylpyridazin-3(2H)-one trifluoroacetate]
- CC50: 50 to 500 nM

Structure (SMILES): Cc1cc(C)cc(CN2CCN(C(=O)c3cc(Cc4n[nH]c(=O)c(C)c4C)ccc3F)CC2=O)c1 [Example 19, 6-(3-{[4-(3,5-Dimethylbenzyl)-3-oxopiperazin-1-yl]carbonyl}-4-fluorobenzyl)-4,5-dimethylpyridazin-3(2H)-one trifluoroacetate]
- CC50: 50 to 500 nM

Structure (SMILES): COc1ccc(CN2CCN(C(=O)c3cc(Cc4n[nH]c(=O)c(C)c4C)ccc3F)CC2=O)cc1 [Example 20, 6-(4-Fluoro-3-{[4-(4-methoxybenzyl)-3-oxopiperazin-1-yl]carbonyl}benzyl)-4,5-dimethylpyridazin-3(2H)-one trifluoroacetate]
- CC50: 50 to 500 nM

Structure (SMILES): Cc1c(Cc2ccc(F)c(C(=O)N3CCN(CCc4ccccc4)C(=O)C3)c2)n[nH]c(=O)c1C [Example 21, 6-(4-Fluoro-3-{[3-oxo-4-(2-phenylethyl)piperazin-1-yl]carbonyl}benzyl)-4,5-dimethylpyridazin-3(2H)-one trifluoroacetate]
- CC50: 50 to 500 nM

Structure (SMILES): COc1cccc(N2CCN(C(=O)c3cc(Cc4n[nH]c(=O)c(C)c4C)ccc3F)CC2=O)c1 [Example 22, 6-(4-Fluoro-3-{[4-(3-methoxyphenyl)-3-oxopiperazin-1-yl]carbonyl}benzyl)-4,5-dimethylpyridazin-3(2H)-one trifluoroacetate]
- CC50: 50 to 500 nM

Structure (SMILES): Cc1cc(C)cc(N2CCN(C(=O)c3cc(Cc4n[nH]c(=O)c(C)c4C)ccc3F)CC2=O)c1 [Example 23, 6-(3-{[4-(3,5-Dimethylphenyl)-3-oxopiperazin-1-yl]carbonyl}-4-fluorobenzyl)-4,5-dimethylpyridazin-3(2H)-one trifluoroacetate]
- CC50: 50 to 500 nM

Structure (SMILES): Cc1c(Cc2ccc(F)c(C(=O)N3CCN(C4CCCCC4)C(=O)C3)c2)n[nH]c(=O)c1C(F)(F)F [Example 25, 3-{3-[(4-Cyclohexyl-3-oxopiperazin-1-yl)carbonyl]-4-fluorobenzyl}-4-methyl-6-oxo-5-(trifluoromethyl)-1,6-dihydropyridazin-1-ium trifluoroacetate]
- CC50: < 50 nM

Reference: US8268827B2, “Pyridazinone derivatives as PARP inhibitors” (Istituto di Ricerche di Biologia Molecolare P. Angeletti …, priority 2007, dated 2012)
